Results: US8063018B2, “Bivalent thrombin binding molecules comprising linkers” (National Research Council of Canada, priority 2004, dated 2011)

These molecules were tested against thrombin (Homo sapiens, UniProt P00734) (assay: Fibrinogen clotting assay catalyzed by thrombin). Conditions: IC50, nM (25° C.), 25° C.; concentration needed to double the clotting time.
Format: biochemical
Protocol: Curves represent OD420 time course after the addition of 0.6 nM thrombin in the presence of (♦) 0 nM; (◯) 0.5 nM; (□) 1 nM; (Δ) 1.5 nM; (⋄) 2.5 nM; (●) 3.75 nM; (▪) 6.25 nM; and (▴) […] of the inhibitor with linker (GS)n and n=2 (SEQ. ID. NO. 50) (a); n=4 (SEQ. ID. NO. 51) (b); n=6 (SEQ. ID. NO. 52) (c); n=8 (SEQ. ID. NO. 53) (d); n=10 (SEQ. ID. NO. 54) (e); and in the presence of (♦) 0 nM; (◯) 1 nM; (□) 2 nM; (Δ) 4 nM; (⋄) 6 nM; (●) 10 nM; (▪) 15 nM; and (▴) 25 nM of the inhibitor with linker (GS)n and n=12 (SEQ. ID. NO. 55) (f); n=14 (SEQ. ID. NO. 56) (g), at 37° C. The onset clotting time was determined as an intersection of the baseline and the extrapolated linear portion of the OD change curve. […] Curves (i) represent OD420 time course in the presence of (A) 0 nM; (◯) 1 nM; (□) 2 nM; (Δ) 4 nM; (⋄) 6 nM; and (●) 15 nM of the inhibitor with linker […] (SEQ. ID. NO. 103), at 37° C. […] represent OD420 time course in the presence of (◯) 0 nM; (□) 2 nM; (Δ) 4 nM; (⋄) 6 nM; (●) 8 nM; (▪) 10 nM; (▴) 12 nM; and (♦) 15 nM; of the inhibitor with linker […] (SEQ. ID. NO. 58) at 25° C. Curves (k) represent OD420 time course in the presence of (◯) 0 nM; (□) 0.5 nM; (Δ) 1 nM; (⋄) 2 nM; (●) 3 nM; (▪) 4 nM; (▴) 5 nM; and (♦) 6 nM; of the inhibitor with linker […] (SEQ. ID. NO. 105) at 37° C. Curves (I) represent OD420 time course in the presence of (◯) 0 nM; (□) 0.25 nM; (Δ) 0.5 nM; (⋄) 1 nM; (●) 1.5 nM; (▪) 2 nM; and (▴) 2.5 nM; of the inhibitor with linker […] (SEQ. ID. NO. 104) at 37° C. Curves (m) represent OD420 time course in the presence of (◯) 0 nM; (□) 2 nM; (Δ) 4 nM; (⋄) 6 nM; (●) 8 nM; (▴) 10 nM; and (A) 12 nM; of the inhibitor with linker […] (SEQ. ID. NO. 106) at 37° C. Curves (n) represent OD420 time course in the presence of (◯) 0 nM; (□) 1 nM; (Δ) 2 nM; (⋄) 3 nM; (●) 4 nM; (▪) 5 nM; (▴) 6 nM; and (♦) 7 nM; of the inhibitor with linker […] (SEQ. ID. NO. 107) at 37° C. Curves (o) represent OD420 time course in the presence of (◯) 0 nM; (□) 4 nM; and (Δ) 8 nM; of the inhibitor with linker GQSHNR (SEQ. ID. NO. 108) at 37° C.
Other experimental conditions were as used for the assays described in FIG. 2.
Clotting assays were carried out by use of the protocols described previously (DiMaio and others, 1990, 21698-21703; Witting and others, 1992, 737-743). The assay employs bovine plasma fibrinogen dissolved at 0.1% in 50 mM Tris-Cl, 100 mM NaCl, 0.1% PEG-8000 at pH 7.6 (i.e. the clotting buffer). Each assay mixture contained a certain concentration of the peptide, and the reaction was started by the addition of human thrombin to a final concentration of 0.6-1.2 nM. Optical absorbance increase at 420 nm caused by fibrin clot formation was measured at 25° C. or 37° C. using the Spectramax plate reader. The onset clotting time was determined as an intersection of the baseline and the extrapolated linear portion of the OD change curve. The concentration of a peptide needed to double the clotting time was defined as IC50 (DiMaio and others, 1990, 21698-21703). Kinetic amidolytic curves were obtained in clotting buffer at 25° C. using eight inhibitor concentrations and three to five concentrations of the chromogenic substrate S-2238 (Chromogenix) (DiMaio and others, 1990, 21698-21703). Inhibition constants were extracted from Lineweaver-Burk equation by using weighted linear regression. Errors in Ki determination were estimated by using Monte-Carlo sampling with 1-3% variance of the experimental points.
`CC[C@H](C)[C@H](NC(=O)[C@H](CCC(=O)O)NC(=O)[C@H](CCC(=O)O)NC(=O)[C@H](Cc1ccccc1)NC(=O)[C@H](CC(=O)O)NC(=O)CNC(=O)[C@H](CO)NC(=O)[C@@H](NC(=O)[C@H](CCCCN)NC(=O)[C@H](CCC(=O)O)NC(=O)[C@H](Cc1ccc(O)cc1)NC(=O)[C@H](Cc1c[nH]cn1)NC(=O)[C@@H]1CCCN1C(=O)[C@H](CO)NC(=O)CNC(=O)[C@H](CO)NC(=O)[C@@H](NC(=O)[C@H](CCCCN)NC(=O)[C@H](CCC(=O)O)NC(=O)[C@H](Cc1ccc(O)cc1)NC(=O)[C@H](Cc1c[nH]cn1)NC(=O)[C@@H]1CCCN1C(=O)[C@H](CO)NC(=O)CNC(=O)[C@H]1CCCCN1C(=O)[C@H](CCCNC(=N)N)NS(=O)(=O)c1ccc(C(C)(C)C)cc1)C(C)C)C(C)C)C(=O)N1CCC[C@H]1C(=O)N[C@@H](CCC(=O)O)C(=O)N[C@@H](CCC(=O)O)C(=O)N[C@@H](Cc1ccc(O)cc1)C(=O)N[C@@H](CC(C)C)C(=O)N[C@@H](CCC(N)=O)C(=O)O` [P3161] was tested, and the IC50 was 0.7 nM. For `CC[C@H](C)[C@H](NC(=O)[C@H](CCC(=O)O)NC(=O)[C@H](CCC(=O)O)NC(=O)[C@H](Cc1ccccc1)NC(=O)[C@H](CC(=O)O)NC(=O)CNC(=O)[C@H](CO)NC(=O)[C@@H](NC(=O)[C@H](CCCCN)NC(=O)[C@H](CCC(=O)O)NC(=O)[C@H](Cc1ccc(OP(=O)(O)O)cc1)NC(=O)[C@H](Cc1c[nH]cn1)NC(=O)[C@@H]1CCCN1C(=O)[C@H](CO)NC(=O)CNC(=O)[C@H](CO)NC(=O)[C@@H](NC(=O)[C@H](CCCCN)NC(=O)[C@H](CCC(=O)O)NC(=O)[C@H](Cc1ccc(OP(=O)(O)O)cc1)NC(=O)[C@H](Cc1c[nH]cn1)NC(=O)[C@@H]1CCCN1C(=O)[C@H](CO)NC(=O)CNC(=O)[C@H]1CCCCN1C(=O)[C@H](CCCNC(=N)N)NS(=O)(=O)c1ccc(C(C)(C)C)cc1)C(C)C)C(C)C)C(=O)N1CCC[C@H]1C(=O)N[C@@H](CCC(=O)O)C(=O)N[C@@H](CCC(=O)O)C(=O)N[C@@H](Cc1ccc(O)cc1)C(=O)N[C@@H](CC(C)C)C(=O)N[C@@H](CCC(N)=O)C(=O)O` [P3162], the IC50 was 19 ± 1 nM. `CC[C@H](C)[C@H](NC(=O)[C@H](CCC(=O)O)NC(=O)[C@H](CCC(=O)O)NC(=O)[C@H](Cc1ccccc1)NC(=O)[C@H](CC(=O)O)NC(=O)CNC(=O)[C@H](CO)NC(=O)CNC(=O)[C@H](CO)NC(=O)CNC(=O)[C@H](CO)NC(=O)CNC(=O)[C@H](CO)NC(=O)CNC(=O)[C@H](CO)NC(=O)CNC(=O)[C@H](CCCCN)NC(=O)CNC(=O)[C@H](CO)NC(=O)CNC(=O)[C@H](CO)NC(=O)CNC(=O)[C@H](CO)NC(=O)CNC(=O)[C@H](CO)NC(=O)CNC(=O)[C@H]1CCCCN1C(=O)[C@H](CCCNC(=N)N)NS(=O)(=O)c1ccc(C(C)(C)C)cc1)C(=O)N1CCC[C@H]1C(=O)N[C@@H](CCC(=O)O)C(=O)N[C@@H](CCC(=O)O)C(=O)N[C@@H](Cc1ccc(O)cc1)C(=O)N[C@@H](CC(C)C)C(=O)N[C@@H](CCC(N)=O)C(=O)O` [P3174] showed an IC50 of 1.6 ± 0.9 nM.

Same assay, conditions: IC50, nM (37° C.), 37° C.; concentration needed to double the clotting time
Work on `CC[C@H](C)[C@H](NC(=O)[C@H](CCC(=O)O)NC(=O)[C@H](CCC(=O)O)NC(=O)[C@H](Cc1ccccc1)NC(=O)[C@H](CC(=O)O)NC(=O)CNC(=O)[C@H](CO)NC(=O)CNC(=O)[C@H](CO)NC(=O)CNC(=O)[C@H]1CCCCN1C(=O)[C@H](CCCN=C(N)N)NS(=O)(=O)c1ccc(C(C)(C)C)cc1)C(=O)N1CCC[C@H]1C(=O)N[C@@H](CCC(=O)O)C(=O)N[C@@H](CCC(=O)O)C(=O)N[C@@H](Cc1ccc(O)cc1)C(=O)N[C@@H](CC(C)C)C(=O)N[C@@H](CCC(N)=O)C(=O)O` [P3149] yielded an IC50 of 9.7 ± 0.7 nM. For `CC[C@H](C)[C@H](NC(=O)[C@H](CCC(=O)O)NC(=O)[C@H](CCC(=O)O)NC(=O)[C@H](Cc1ccccc1)NC(=O)[C@H](CC(=O)O)NC(=O)CNC(=O)[C@H](CO)NC(=O)CNC(=O)[C@H](CO)NC(=O)CNC(=O)[C@H](CO)NC(=O)CNC(=O)[C@H](CO)NC(=O)CNC(=O)[C@H](CO)NC(=O)CNC(=O)[C@H](CO)NC(=O)CNC(=O)[C@H](CO)NC(=O)CNC(=O)[C@H](CO)NC(=O)CNC(=O)[C@H]1CCCCN1C(=O)[C@H](CCCN=C(N)N)NS(=O)(=O)c1ccc(C(C)(C)C)cc1)C(=O)N1CCC[C@H]1C(=O)N[C@@H](CCC(=O)O)C(=O)N[C@@H](CCC(=O)O)C(=O)N[C@@H](Cc1ccc(O)cc1)C(=O)N[C@@H](CC(C)C)C(=O)N[C@@H](CCC(N)=O)C(=O)O` [P3152], the IC50 was 0.7 ± 0.1 nM. For `CC[C@H](C)[C@H](NC(=O)[C@H](CCC(=O)O)NC(=O)[C@H](CCC(=O)O)NC(=O)[C@H](Cc1ccccc1)NC(=O)[C@H](CC(=O)O)NC(=O)CNC(=O)[C@H](CO)NC(=O)CNC(=O)[C@H](CO)NC(=O)CNC(=O)[C@H](CO)NC(=O)CNC(=O)[C@H](CO)NC(=O)CNC(=O)[C@H](CO)NC(=O)CNC(=O)[C@H](CO)NC(=O)CNC(=O)[C@H](CO)NC(=O)CNC(=O)[C@H](CO)NC(=O)CNC(=O)[C@@H](N)CSSC[C@H](NC(=O)CNC(=O)[C@H]1CCCCN1C(=O)[C@H](CCCNC(=N)N)NS(=O)(=O)c1ccc(C(C)(C)C)cc1)C(=O)O)C(=O)N1CCC[C@H]1C(=O)N[C@@H](CCC(=O)O)C(=O)N[C@@H](CCC(=O)O)C(=O)N[C@@H](Cc1ccc(O)cc1)C(=O)N[C@@H](CC(C)C)C(=O)N[C@@H](CCC(N)=O)C(=O)O` [P3172-P3165], the IC50 was 1.1 ± 0.2 nM. For `CC[C@H](C)[C@H](NC(=O)[C@H](CCC(=O)O)NC(=O)[C@H](CCC(=O)O)NC(=O)[C@H](Cc1ccccc1)NC(=O)[C@H](CC(=O)O)NC(=O)CNC(=O)[C@H](CC(N)=O)NC(=O)[C@H](CO)NC(=O)[C@@H](NC(=O)[C@H](CCCCN)NC(=O)[C@H](CC(=O)O)NC(=O)[C@@H](NC(=O)[C@@H]1CCCN1C(=O)[C@@H](NC(=O)[C@H](CC(N)=O)NC(=O)[C@H](CC(C)C)NC(=O)[C@H](CC(=O)O)NC(=O)[C@H](CC(C)C)NC(=O)[C@@H](NC(=O)CNC(=O)[C@H]1CCCCN1C(=O)[C@H](CCCNC(=N)N)NS(=O)(=O)c1ccc(C(C)(C)C)cc1)[C@@H](C)O)[C@@H](C)O)C(C)C)[C@@H](C)O)C(=O)N1CCC[C@H]1C(=O)N[C@@H](CCC(=O)O)C(=O)N[C@@H](CCC(=O)O)C(=O)N[C@@H](Cc1ccc(O)cc1)C(=O)N[C@@H](CC(C)C)C(=O)N[C@@H](CCC(N)=O)C(=O)O` [P3181], the IC50 was 1.9 ± 0.2 nM. With `CC[C@H](C)[C@H](NC(=O)[C@H](CCC(=O)O)NC(=O)[C@H](CCC(=O)O)NC(=O)[C@H](Cc1ccccc1)NC(=O)[C@H](CC(=O)O)NC(=O)CNC(=O)[C@H](CC(=O)O)NC(=O)[C@H](CC(N)=O)NC(=O)[C@H](Cc1c[nH]cn1)NC(=O)[C@H](CC(C)C)NC(=O)[C@H](CCC(N)=O)NC(=O)[C@@H]1CCCN1C(=O)[C@H](CCCNC(=N)N)NC(=O)[C@@H]1CCCN1C(=O)[C@@H](NC(=O)[C@@H](NC(=O)[C@H](CO)NC(=O)CNC(=O)[C@H]1CCCCN1C(=O)[C@H](CCCNC(=N)N)NS(=O)(=O)c1ccc(C(C)(C)C)cc1)C(C)C)C(C)C)C(=O)N1CCC[C@H]1C(=O)N[C@@H](CCC(=O)O)C(=O)N[C@@H](CCC(=O)O)C(=O)N[C@@H](Cc1ccc(O)cc1)C(=O)N[C@@H](CC(C)C)C(=O)N[C@@H](CCC(N)=O)C(=O)O` [P3209] the IC50 was 1.1 nM.
